Experimental data as given in US9175305B2, “Mutant hydroxyphenylpyruvate dioxygenase polypeptides and methods of use” (Syngenta Participations AG, priority 2009, dated 2015).
Several values for one entry are separate records, joined by “and”; a condition that tells them apart may be missing. Equal values may be shown once. Read-outs that look alike come from different tables or passages of the source.

How the values were obtained:
HPPD SEQ ID NO:23 = HPPD SEQ ID NO:23 (Avena sativa, UniProt A0ACD5V6K6, A242W/DEL109-109); assay: biochemical; type: binding; settings: read-out: koff (k1)
Chain of HPPD SEQ ID NO:23 (A0ACD5V6K6 entry or part of it DEL109-109/A242W): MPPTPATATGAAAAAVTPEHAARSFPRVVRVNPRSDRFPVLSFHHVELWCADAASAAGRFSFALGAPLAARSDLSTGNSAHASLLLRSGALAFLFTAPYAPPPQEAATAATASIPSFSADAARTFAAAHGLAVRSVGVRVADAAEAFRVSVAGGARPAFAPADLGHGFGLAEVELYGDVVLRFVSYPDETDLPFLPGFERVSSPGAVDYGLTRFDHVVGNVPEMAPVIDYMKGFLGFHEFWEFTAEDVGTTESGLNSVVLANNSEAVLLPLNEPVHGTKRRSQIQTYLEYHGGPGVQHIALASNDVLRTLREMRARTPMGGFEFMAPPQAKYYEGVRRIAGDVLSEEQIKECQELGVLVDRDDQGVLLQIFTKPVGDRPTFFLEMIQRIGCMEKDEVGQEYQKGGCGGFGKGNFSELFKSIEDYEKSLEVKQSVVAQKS
Description: (§1) On rates (governed by an association rate constant, kon) for the formation of the enzyme: inhibitor complexes, EI and off rates (governed by a dissociation rate constant, koff) were determined by methods known in the art and essentially as described in Hawkes et al. (2001) Proc. Bright. Crop. Prot. Conf. Weeds, 2:563-568 and in PCT Patent App. Pub. No. WO 02/46387).
(§2) For example, on rates were measured by, at zero time, adding ˜60 pmoles HPPD to 50 mM BisTrisPropane buffer at pH7.0 and at 25° C. containing 25 mM Na ascorbate, 4 μg/ml bovine catalase (Sigma, St. Louis, Mo.) and an excess (˜300 pmoles) of ^14C inhibitor in a total assay volume of 425 μl and, at various time points (0-180 s), quenching the radiolabel binding reaction by addition and rapid mixing of 100 μl ‘cold’ 1 mM structure A. Protein samples quenched at different times were then exchanged into 50 mM BisTrisPropane buffer at pH 7.0 containing 0.1M KCl by rapid chromatography down a NAP5 G25 Sephadex column (GE Healthcare Ltd, Buckinghamshire UK) and the amount of ^14C bound to protein fractions quantified in Optiphase scintillant using a Tri-Carb 2900TR scintillation counter (Perkin Elmer, Wellesley, Mass.). The data were fit according to the scheme below in order to derive the value of the apparent second order rate constant, k2, governing the association rate of enzyme and radiolabelled inhibitor. A range of enzyme and inhibitor concentrations were used. […] Further example methods are described in PCT Patent App. Pub. No. WO 02/46387.
(§3) Off rates (k1 in the scheme below) were derived from exchange rate studies where either the test inhibitor, I, or its exchange partner, J were radiolabelled and the data fit according to the scheme below. As noted in Hawkes et al. (2001) Proc. Bright. Crop. Prot. Conf.
(§4) After 30 minutes the exchange reaction was initiated with addition of 100 μl 1 mM ‘cold’ structure A with thorough mixing, and, immediately, 150 μl were withdrawn and loaded onto a NAP5 column, the protein exchanged into 50 mM BisTrisPropane buffer at pH 7.0 containing 0.1M KCl by rapid (<2 min) chromatography down a NAP5 G25 Sephadex column (GE Healthcare Ltd, Buckinghamshire UK) and the amount of ^14C bound to protein measured by Optiphase scintillant using a Tri-Carb 2900TR scintillation counter (Perkin Elmer, Wellesley, Mass.). Further aliquots were removed and measured in the same way at various times over minutes or hours as required in order to determine the exchange kinetics.
(§5) After 30 minutes the reaction vessel was transferred to ice. After a further 10 minutes at ice temperature the exchange reaction was initiated by addition of 100 μl 1 mM Structure A, with thorough mixing, and 150 μl was withdrawn and loaded onto a NAP5 column in a cold room at ˜5-8° C. in order to quantify the amount of radiolabel remaining bound to the protein at various time from the start of exchange at ice temperature.
(§6) Off rates (k1) of HPPD inhibitors that are not available radiolabelled or that present other measurement problems (for example high levels of background non-specific protein-binding which can be measured as radiolabel binding that persists in the presence of high concentrations of ‘cold’ inhibitor) may be measured indirectly. […] Exemplary methods are also described in PCT Patent App. Pub. No. WO 02/46387.

HPPD SEQ ID NO:18 = HPPD SEQ ID NO:18 (Avena sativa, UniProt A0ACD5V6K6, DEL109-109/I285T); assay: biochemical; type: binding; settings: read-out: koff (k1)
Chain of HPPD SEQ ID NO:18 (A0ACD5V6K6 entry or part of it DEL109-109/I285T): as the sequence (A0ACD5V6K6 entry or part of it DEL109-109/A242W) above, with W241A, I284T counted along it
Description: as §1, §2, §3, §4, §5, §6

HPPD SEQ ID NO:14 = HPPD SEQ ID NO:14 (Avena sativa, UniProt A0ACD5V6K6, DEL109-109); assay: biochemical; type: binding
Chain of HPPD SEQ ID NO:14 (A0ACD5V6K6 entry or part of it DEL109-109): as the sequence (A0ACD5V6K6 entry or part of it DEL109-109/A242W) above, with W241A counted along it
Description: as §1, §2, §3, §4, §5, §6

HPPD SEQ ID NO:21 = HPPD SEQ ID NO:21 (Avena sativa, UniProt A0ACD5V6K6, DEL109-109/I285V); assay: biochemical; type: binding; settings: read-out: koff (k1)
Chain of HPPD SEQ ID NO:21 (A0ACD5V6K6 entry or part of it DEL109-109/I285V): as the sequence (A0ACD5V6K6 entry or part of it DEL109-109/A242W) above, with W241A, I284V counted along it
Description: as §1, §2, §3, §4, §5, §6

HPPD SEQ ID NO:24 = HPPD SEQ ID NO:24 (Avena sativa, UniProt A0ACD5V6K6, DEL109-109/L359M); assay: biochemical; type: binding
Chain of HPPD SEQ ID NO:24 (A0ACD5V6K6 entry or part of it DEL109-109/L359M): as the sequence (A0ACD5V6K6 entry or part of it DEL109-109/A242W) above, with W241A, L358M counted along it
Description: as §1, §2, §3, §4, §5, §6

HPPD SEQ ID NO:15 = HPPD SEQ ID NO:15 (Avena sativa, UniProt A0ACD5V6K6, DEL109-109/Q298A); assay: biochemical; type: binding; settings: read-out: koff (k1)
Chain of HPPD SEQ ID NO:15 (A0ACD5V6K6 entry or part of it DEL109-109/Q298A): as the sequence (A0ACD5V6K6 entry or part of it DEL109-109/A242W) above, with W241A, Q297A counted along it
Description: as §1, §2, §3, §4, §5, §6

HPPD SEQ ID NO:22 = HPPD SEQ ID NO:22 (Avena sativa, UniProt A0ACD5V6K6, DEL109-109/L256M); assay: biochemical; type: binding; settings: read-out: koff (k1)
Chain of HPPD SEQ ID NO:22 (A0ACD5V6K6 entry or part of it DEL109-109/L256M): as the sequence (A0ACD5V6K6 entry or part of it DEL109-109/A242W) above, with W241A, L255M counted along it
Description: as §1, §2, §3, §4, §5, §6

[1] = Km and kcat of expressed HPPDs (HPLC/UV quantitation of homogentisate); type: biochemical, Avena sativa; settings: for V217I, L271I, L271V, V258M, A326R estimated from initial rates in cell extracts, pH 7.0, 25° C., 120 μM HPP
Description: The assay solution was transferred to Chromacol 03-CVG HPLC vials, sealed and the amount of homogentisate formed in a 40 μl aliquot determined by injection onto a reverse phase Aqua C18 5μ 75×4.6 mm HPLC column running 5.5% acetonitrile 0.1% TFA (Buffer A) at 1.5 ml/min. The column was eluted at 1.5 ml/minute using a 2 minute wash in buffer A, followed by a 2 minute wash in a 30/70 mixture of buffer A and 100% Acetonitrile, and a further 3.5 minute wash in buffer A. The elution of homogentisate was monitored by UV at 292 nm and the amount formed in each reaction quantified by comparison with a standard calibration curve.
Km and Vmax values were determined (for example FIG. 1) using a non linear least squares fit using Grafit 4™ software (Erithacus Software, Middlesex, UK). Kcat values were determined by dividing the maximum rate, Vmax expressed in nmol/second by the number of nmoles of HPPD enzyme (based on the concentration determined by active-site titration).
Experiments were carried out as described for Table 4. ‘Sulc’ denotes sulcotrione and ‘nd’ means ‘no data’. For V217I, L271I, L271V, V258M and A326R, the relative values of kcat were estimated from comparisons of the initial rates in cell extracts of similarly prepared and expressed HPPDs in conventional enzyme activity assays at pH 7.0, 25° C. and at a substrate concentration of 120 μM HPP.

[2] = catalytic activity and herbicide resistance of mutants of SEQ ID NO:14 in extracts; type: biochemical, Avena sativa
From the text: These further mutations can all be optionally combined with the resistance conferring mutations to produce catalytically active variants of HPPD herbicide resistant enzymes of the current invention.

Row | Molecule | koff (HPPD SEQ ID NO:23) [s⁻¹] | koff (HPPD SEQ ID NO:18) [s⁻¹] | Off rate k1 (HPPD SEQ ID NO:14; 25° C., direct, radiochemical method, average and individual experiments) | koff (HPPD SEQ ID NO:14; 25° C., direct, radiochemical method, average and individual experiments, read-out: Off rate k1) [s⁻¹] | kon (HPPD SEQ ID NO:14; 25° C., direct, radiochemical method, average and individual experiments, read-out: On rate k2) [M⁻¹ s⁻¹] | kon (HPPD SEQ ID NO:14; 25° C., enzyme activity-based method, read-out: On rate, activity-based method) [M⁻¹ s⁻¹] | Kd/Km ratio (HPPD SEQ ID NO:14; HPPD SEQ ID NO:14) | Kd (HPPD SEQ ID NO:14; HPPD variant SEQ ID# 14, 25° C.) [nM] | Kd (HPPD SEQ ID NO:14; estimated from on and off rates, 25° C.) [nM] | koff (HPPD SEQ ID NO:14; read-out: koff (k1)) [s⁻¹] | kon (HPPD SEQ ID NO:14; read-out: kon (k2)) [M⁻¹ s⁻¹] | koff (HPPD SEQ ID NO:21) [s⁻¹] | Kd (HPPD SEQ ID NO:24) [nM] | koff (HPPD SEQ ID NO:24; read-out: koff (k1)) [s⁻¹] | kon (HPPD SEQ ID NO:24; read-out: kon (k2)) [M⁻¹ s⁻¹] | koff (HPPD SEQ ID NO:15) [s⁻¹] | koff (HPPD SEQ ID NO:22) [s⁻¹] | Rate: kcat relative to non-mutated HPPD SEQ ID NO:14 [1] | catalytic activity and resistance to sulcotrione relative to control, unmutated SEQ ID NO:14 [2]
1 | CS(=O)(=O)c1cc(C(F)(F)F)ccc1C(=O)C(C#N)C(=O)C1CC1 (centres unmarked) [Structure D] | 2.37e-05 | 3.96e-05 | 4.17e-05 s⁻¹ and 3.75e-05 s⁻¹ | 3.96e-05 | 32000 | 32000 | 0.00023 | 1.2 | 1.23 | 3.96e-05 | 32000 | 3.96e-05 | 2.9 | 9.18e-05 | 32000 | 2.37e-05 | 2.37e-05 | – | –
2 | V258M: V258M mutant of HPPD SEQ ID NO:14 (protein, mutant HPPD polypeptide) MPPTPATATGAAAAAVTPEHAARSFPRVVRVNPRSDRFPVLSFHHVELWCADAASAAGRFSFALGAPLAARSDLSTGNSAHASLLLRSGALAFLFTAPYAPPPQEAATAATASIPSFSADAARTFAAAHGLAVRSVGVRVADAAEAFRVSVAGGARPAFAPADLGHGFGLAEVELYGDVVLRFVSYPDETDLPFLPGFERVSSPGAVDYGLTRFDHVVGNVPEMAPVIDYMKGFLGFHEFAEFTAEDVGTTESGLNSMVLANNSEAVLLPLNEPVHGTKRRSQIQTYLEYHGGPGVQHIALASNDVLRTLREMRARTPMGGFEFMAPPQAKYYEGVRRIAGDVLSEEQIKECQELGVLVDRDDQGVLLQIFTKPVGDRPTFFLEMIQRIGCMEKDEVGQEYQKGGCGGFGKGNFSELFKSIEDYEKSLEVKQSVVAQKS | – | – | – | – | – | – | – | – | – | – | – | – | – | – | – | – | – | 1 | neutral mutations
3 | V258K: V258K mutant of SEQ ID NO:14 (protein, mutant HPPD polypeptide) MPPTPATATGAAAAAVTPEHAARSFPRVVRVNPRSDRFPVLSFHHVELWCADAASAAGRFSFALGAPLAARSDLSTGNSAHASLLLRSGALAFLFTAPYAPPPQEAATAATASIPSFSADAARTFAAAHGLAVRSVGVRVADAAEAFRVSVAGGARPAFAPADLGHGFGLAEVELYGDVVLRFVSYPDETDLPFLPGFERVSSPGAVDYGLTRFDHVVGNVPEMAPVIDYMKGFLGFHEFAEFTAEDVGTTESGLNSKVLANNSEAVLLPLNEPVHGTKRRSQIQTYLEYHGGPGVQHIALASNDVLRTLREMRARTPMGGFEFMAPPQAKYYEGVRRIAGDVLSEEQIKECQELGVLVDRDDQGVLLQIFTKPVGDRPTFFLEMIQRIGCMEKDEVGQEYQKGGCGGFGKGNFSELFKSIEDYEKSLEVKQSVVAQKS | – | – | – | – | – | – | – | – | – | – | – | – | – | – | – | – | – | – | neutral mutations
